Columns and labels:
COX I = molecular target: T1, COX I (Ovis aries, UniProt P05979); test: COX I inhibition; assay type: biochemical, ram; settings: at 100 μM
T1 construct: COX-I purified from ram seminal vesicles; tissue Cayman Chemical; host or cells: ram seminal vesicles

[1] = system: aberrant crypt foci (ACF); test: Azoxymethane-induced aberrant crypt foci model; assay type: in vivo, male Fisher 344 rats; settings: for % Control (ACF/colon) / Mean ACF/colon (+SE): free base; for Mean ACF/colon (+SE): 5 weeks
Method: The growth inhibition IC50 value obtained for Compound B was 0.7 μM in the SW-480 cell line. […] This established rodent model of azoxymethane (“AOM”)-induced carcinogenesis was used to assess the effects of Compound B (free base and salt) on colon cancer development in vivo. ACF are precursors to colonic tumors, and ACF inhibition is predictive of chemo-preventive efficacy.
In the rats in this experiment, ACF initiation was achieved by two consecutive weekly injections of the carcinogen. Compound B was administered one week prior to ACF initiation and for the duration of the experiment. ACFs were scored after 5 weeks of treatment. Compound B was administered orally to male Fisher 344 rats in the rat chow. Daily food consumption (mg/kg body weight) varied over the course of the study, and therefore Compound B dose was expressed a grams per kg of diet to provide a basis of comparison between doses. […] The experimental groups gained less weight than the controls, which was indicative of bioavailability. However, the weight differences were less than 10% and not considered to affect ACF formation.

PKG in SW480 cells = test: Western blot of PKG expression; assay type: cell-based, human; settings: 48 hours
Method: SW480 cells treated with exisulind as described previously are harvested from the microfuge tubes by rinsing once with ice-cold PBS. The cells are lysed by modified RIPA buffer for 15 minutes with agitation. The cell lysate is spun down in a cold room. The supernatants are transferred to fresh microcentrifuge tubes immediately after spinning. BioRad DC Protein Assay (Temecula, Calif.) is performed to determine the protein concentrations in samples. The samples are normalized for protein concentration, as described above.
50 μg of each sample is loaded to 10% SDS gel. SDS-PAGE is performed, and the proteins then are transferred to a nitrocellulose membrane. The blotted nitrocellulose membrane are blocked in freshly prepared TBST containing 5% nonfat dry milk for one hour at room temperature with constant agitation.
A goat-anti-PKG primary antibody is diluted to the recommended concentration/dilution in fresh TBST/5% nonfat dry milk. The nitrocellulose membrane is placed in the primary antibody solution and incubated one hour at room temperature with agitation. The nitrocellulose membrane is washed three times for ten minutes each with TBST. The nitrocellulose membrane is incubated in a solution containing a secondary POD conjugated rabbit anti-goat antibody for 1 hour at room temperature with agitation. The nitrocellulose membrane is washed three times for ten minutes each time with TBST. […]

[2] = system: PKG in SW480 colon cancer cells; test: PKG assay of drug-treated cell lysates (GST-cGB-PDE5 solid phase substrate); assay type: cell-based, human; settings: 48 hrs, exisulind 200, 400, 600 μM, E4021 0.1, 1, 10 μM, with and without added cGMP
Method: To test the effect of cGMP-specific PDE inhibition on neoplasia containing the APC mutation, SW480 colon cancer cells were employed. SW 480 is known to contain the APC mutation. About 5 million SW480 cells in RPMI 5% serum are added to each of 8 dishes:
2-10 cm dishes—30 μL DMSO vehicle control (without drug),
3-10 cm dishes—200 μM, 400 μM, 600 μM exisulind in DMSO, and
The dishes are incubated for 48 hrs at 37° C. in 5% CO2 incubator.
The liquid media are aspirated from the dishes (the cells will attach themselves to the dishes). The attached cells are washed in each dish with cold PBS, and 200 μL cell lysis buffer (i.e., 50 mM Tris-HCl, 1% NP-40, 150 mM NaCl, 1 mM EDTA, 1 mM Na3VO4, 1 mM NaF, 500 μM IBMX with proteinase inhibitors) is added to each dish. Immediately after the cell lysis buffer is added, the lysed cells are collected by scraping the cells off each dish. The cell lysate from each dish is transferred to a microfuge tube, and the microfuge tubes are incubated at 4° C. for 15 minutes while gently agitating the microfuge tubes to allow the cells to lyse completely. […]
For each control or drug cell lysate sample to be evaluated, the reaction is started by adding phosphorylation buffer containing 10 μCi ^32P-γ-ATP solution (200 μM ATP, 4.5 mM MgCl; 5 mM KH2PO4; 5 mM K2HPO4;) to each mixture. […]

T1 sequence (P05979 25-600): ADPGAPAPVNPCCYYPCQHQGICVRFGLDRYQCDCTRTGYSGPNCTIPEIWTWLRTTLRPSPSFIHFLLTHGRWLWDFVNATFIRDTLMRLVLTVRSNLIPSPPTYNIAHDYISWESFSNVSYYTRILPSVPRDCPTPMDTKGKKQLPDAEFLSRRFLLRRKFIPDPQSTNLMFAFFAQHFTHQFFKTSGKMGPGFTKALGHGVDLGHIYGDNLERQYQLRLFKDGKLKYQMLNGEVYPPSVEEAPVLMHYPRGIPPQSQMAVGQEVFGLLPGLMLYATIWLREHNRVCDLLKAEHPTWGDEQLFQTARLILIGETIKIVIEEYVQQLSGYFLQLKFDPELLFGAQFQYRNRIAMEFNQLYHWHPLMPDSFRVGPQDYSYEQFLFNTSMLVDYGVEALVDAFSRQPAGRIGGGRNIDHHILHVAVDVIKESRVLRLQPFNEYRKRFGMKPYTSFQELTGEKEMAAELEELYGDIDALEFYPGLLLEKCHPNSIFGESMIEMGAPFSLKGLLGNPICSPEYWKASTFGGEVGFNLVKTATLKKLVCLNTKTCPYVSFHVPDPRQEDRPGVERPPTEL

| SMILES | COX I inhibition (COX I) | % Control (ACF/colon) ([1]; 0.5 g/kg diet) [%] | Mean ACF/colon (+SE) ([1]; 0.5 g/kg diet) | % Control (ACF/colon) ([1]; 1 g/kg diet) [%] | Mean ACF/colon (+SE) ([1]; 1 g/kg diet) | % Control (ACF/colon) ([1]; 1.5 g/kg diet) [%] | Mean ACF/colon (+SE) ([1]; 1.5 g/kg diet) | % Control (ACF/colon) ([1]; 2.0 g/kg diet) [%] | Mean ACF/colon (+SE) ([1]; 2.0 g/kg diet) | body weight difference versus controls ([1]; rats, Compound B in rat chow, over the experiment) | PKG level by Western blot (PKG in SW480 cells) | PKG activity relative to control [2] |
| --- | --- | --- | --- | --- | --- | --- | --- | --- | --- | --- | --- | --- |
| CC1=C(CC(=O)NCc2ccccc2)c2cc(F)ccc2/C1=C\c1ccncc1.Cl [Compound B, (Z)-5-fluoro-2-methyl-(4-pyridylidene)-3-(N-benzyl)indenylacetamide hydrochloride] | less than 25% | 100 | 149 ± 14 | 75 | 111 ± 9 | 89 | 132 ± 4 | 72 | 107 ± 15 | less than 10% | – | – |
| CC1=C(CC(=O)O)c2cc(F)ccc2/C1=C\c1ccc(S(C)(=O)=O)cc1 [exisulind, 5-fluoro-2-methyl-1-(p-methylsulfonylbenzylidene)-3-indenylacetic acid] | – | – | – | – | – | – | – | – | – | – | the increase of PKG | causes PKG activity to increase in a dose-dependent manner |

— patent US6569638B1, “Method for screening compounds for the treatment of neoplasia” (Cell Pathways, Inc, priority 2000, dated 2003)
